Reference: patent US8828988B2 (Tetraphase Pharmaceuticals, Inc., priority 2009, dated 2014)
Converted amounts (≈) assume the structure as drawn. Like-named read-outs stand apart in the source and are kept apart here.

Tests used:
[1] = tested on: E. coli S30 extract system, coupled in vitro transcription/translation, firefly luciferase readout; test: In vitro transcription/translation (TnT) assay; assay type: biochemical; conditions: for IC50, in vitro transcription/translation system: E. coli S30 extract, luciferase readout
[2] = tested on: E. coli DH10B(pBAD-tetM), expressing tet(M); test: MIC against recombinant E. coli expressing tet(M); assay type: cell-based; conditions: for MIC: Escherichia coli; for Ratio (TetM induced / Uninduced): ratio of MICs; for Effect of expression of (tet)M on activity: result in words
Text: (§1) Constructs were transformed into E. coli DH10B for expression. Recombinant strains were pre-induced under optimized conditions with L-arabinose prior to use as inocula in CLSI standardized MIC assays.

[3] = tested on: E. coli DH10B(pBAD-tetK), expressing tet(K); test: MIC against recombinant E. coli expressing tet(K); assay type: cell-based; conditions: for MIC: Escherichia coli; for MIC ratio, TetK induced to uninduced: ratio of TetK induced to uninduced MIC; for Effect of expression of (tet)K on activity: result in words
Text: as §1

[4] = tested on: S. aureus strains collected from various geographical sources; test: MIC50 and MIC90 analysis (Example 22)
Method: (§4) Frozen bacterial strains were thawed and subcultured onto Mueller Hinton Broth (MHB) or other appropriate media (Streptococcus requires blood and Haemophilus requires hemin and NAD). Following incubation overnight, the strains were subcultured onto Mueller Hinton Agar and again incubated overnight. […] Isolated colonies were selected to prepare a starting inoculum equivalent to a 0.5 McFarland standard. […] Antibiotics (stored frozen, thawed and used within 3 hours of thawing) and compounds were further diluted to the desired working concentrations.
(§5) The assays were run as follows. Fifty μL of MHB was added to wells 2-12 of a 96-well plate. One hundred μL of appropriately diluted antibiotic or compound was added to well 1. Fifty μL of antibiotics or compound was removed from well 1 and added to well 2 and the contents of well 2 mixed by pipetting up and down five times. Fifty μL of the mixture in well 2 was removed and added to well 3 and mixed as above. Serial dilutions were continued in the same manner through well 12. Fifty μL was removed from well 12 so that all contained 50 μL. Fifty μL of the working inoculum was then added to all test wells. A growth control well was prepared by adding 50 μL of working inoculum and 50 μL of MHB to an empty well. The plates were then incubated at 37° C. overnight, removed from the incubator and each well was read on a plate reading mirror. The lowest concentration (MIC) of test compound that inhibited the growth of the bacteria was recorded.
(§6) MIC, MIC50 and MIC90 values were determined according to CLSI methodology. S. pneumoniae and H. influenzae isolates were obtained from Eurofins-Medinet and are recent clinical isolates. S. aureus strains were collected from various geographical sources.

E. coli ATCC 25922 = test: Mouse systemic infection model, E. coli septicemia; conditions: mouse septicemia, E. coli ATCC 25922, treatment one hour post-challenge, survival after 48 hours
[5] = tested on: S. aureus ATCC 13709 (Smith); test: Mouse systemic infection model, S. aureus septicemia; conditions: mouse septicemia, S. aureus ATCC 13709, intravenous treatment one hour post-challenge, survival after 48 hours
[6] = tested on: Staphylococcus aureus SA100, ATCC 13709, MSSA, Smith strain; test: MIC assay, SA100; assay type: cell-based; conditions: Table 12, read-out: MIC S. aureus ATCC 13709
[7] = tested on: Streptococcus pneumoniae SP106, ATCC 49619; test: MIC assay, SP106; assay type: cell-based
[8] = tested on: Staphylococcus aureus SA161, HA-MRSA, tetracycline-resistant, tet(M); test: MIC assay, SA161; assay type: cell-based; conditions: Table 8, read-out: MIC S. aureus MRSA, tetM
[9] = tested on: Escherichia coli EC155, tetracycline-resistant, tet(A); test: MIC assay, EC155; assay type: cell-based
[10] = tested on: Enterococcus faecalis EF103, ATCC 29212; test: MIC assay, EF103; assay type: cell-based; conditions: Enterococcus faecalis, ATCC29212; Table 8; read-out: MIC E. faecalis ATCC 29212
[11] = tested on: Staphylococcus aureus SA101, ATCC 29213, MSSA; test: MIC assay, SA101; assay type: cell-based
[12] = tested on: H. influenzae isolates (Eurofins-Medinet, recent clinical isolates); test: MIC50 and MIC90 analysis (Example 22)
Method: as §4, §5, §6

[13] = tested on: Enterococcus faecalis EF159, tetracycline-resistant, tet(M); test: MIC assay, EF159; assay type: cell-based
[14] = tested on: S. pneumoniae clinical isolates; test: MIC50, MIC90 and MIC range, panel of clinical isolates (Example 20); assay type: cell-based; conditions: 19 isolates, in µg/mL
Method: (§2) The assays were run as follows.
(§3) Both values, as well as the MIC range (the lowest and highest MIC value observed for a collection of organisms), were determined for the isolates listed in Table 3.

[15] = tested on: E. faecalis clinical isolates; test: as above; assay type: cell-based; conditions: 24 isolates, in µg/mL
Method: as §2, §3

[16] = tested on: S. aureus clinical isolates; test: as above; assay type: cell-based; conditions: MRSA, 30 isolates; in µg/mL
Method: as §2, §3

[17] = tested on: Staphylococcus aureus SA158, tetracycline-resistant tet(K); test: MIC assay, SA158; assay type: cell-based; conditions: Table 8, read-out: MIC S. aureus tetK
[18] = tested on: Streptococcus pneumoniae SP160, tetracycline-resistant, tet(M); test: MIC assay, SP160; assay type: cell-based; conditions: Table 8, read-out: MIC S. pneumoniae tetM
[19] = tested on: Escherichia coli EC107, ATCC 25922; test: MIC assay, EC107; assay type: cell-based; conditions: ATCC25922, Table 8, read-out: MIC E. coli ATCC 25922
[20] = ATCC49619, Table 8, read-out: MIC S. pneumoniae ATCC 49619
[21] = Table 8, read-out: MIC E. coli tetA
[22] = Table 8, read-out: MIC S. aureus ATCC 29213
[23] = Table 8, read-out: MIC E. faecalis tetM

CN(C)[C@@H]1C(O)=C(C(N)=O)C(=O)[C@@]2(O)C(O)=C3C(=O)c4c(O)c(NC(=O)CNC(C)(C)C)nc(F)c4C[C@H]3C[C@@H]12 [Compound 120]
TnT IC50 [1]: 0.36 µg/mL | IC50, in vitro transcription/translation system [1]: sub-μg/ml

CCCNc1nc(F)c2c(c1O)C(=O)C1=C(O)[C@]3(O)C(=O)C(C(N)=O)=C(O)[C@@H](N(C)C)[C@@H]3C[C@@H]1C2 [Compound 114]
TnT IC50 [1]: 2.8 µg/mL

C[C@H]1COc2c(N3CCN(C)CC3)c(F)cc3c(=O)c(C(=O)O)cn1c23 [Levofloxacine, levofloxacin, reference compound]
MIC ([2]; read-out: MIC, TetM induced): 0.0156 µg/mL | MIC ([2]; read-out: MIC, Uninduced): 0.0156 µg/mL | Ratio (TetM induced / Uninduced) [2]: 1 | MIC ([3]; read-out: MIC, TetK Induced): 0.0156 µg/mL | MIC ([3]; read-out: MIC, Uninduced): 0.0156 µg/mL | MIC ratio, TetK induced to uninduced [3]: 1

NCC[C@H](O)C(=O)N[C@@H]1C[C@H](N)[C@@H](O[C@H]2O[C@H](CN)[C@@H](O)[C@H](O)[C@H]2O)[C@H](O)[C@H]1O[C@H]1O[C@H](CO)[C@@H](O)[C@H](N)[C@H]1O [Amikacin, amikacin, reference compound]
MIC ([2]; read-out: MIC, TetM induced): 4 µg/mL | MIC ([2]; read-out: MIC, Uninduced): 4 µg/mL | Ratio (TetM induced / Uninduced) [2]: 1 | Effect of expression of (tet)M on activity [2]: unaffected | MIC ([3]; read-out: MIC, TetK Induced): 8 µg/mL | MIC ([3]; read-out: MIC, Uninduced): 8 µg/mL | MIC ratio, TetK induced to uninduced [3]: 1 | Effect of expression of (tet)K on activity [3]: unaffected

CN(C)[C@@H]1C(O)=C(C(N)=O)C(=O)[C@@]2(O)C(O)=C3C(=O)c4c(O)cccc4[C@@](C)(O)[C@H]3C[C@@H]12 [Tetracycline, tetracycline, reference compound]
MIC Range ([4]; S. aureus (n = 20)): 0.06 to 32 µg/mL | MIC50 ([4]; Staphylococcus aureus): 0.13 µg/mL (≈ 0.293 µM) | MIC90 ([4]; Staphylococcus aureus): 0.25 µg/mL (≈ 0.563 µM) | MIC ([2]; read-out: MIC, TetM induced): > 32 µg/mL | MIC ([3]; read-out: MIC, TetK Induced): > 32 µg/mL | PD50 (E. coli ATCC 25922): 17.0 mg/kg | PD50 [5]: 0.35 mg/kg | MIC [6]: 0.5 µg/mL (≈ 1.13 µM) | MIC [7, 20]: 0.063 µg/mL (≈ 0.142 µM) | MIC ([7]; ATCC49619, Table 9, read-out: MIC S. pneum ATCC 49619): 0.25 µg/mL (≈ 0.563 µM) | MIC [8]: 64 µg/mL (≈ 144 µM) | MIC [9, 21]: > 64 µg/mL | MIC ([9]; Table 9, read-out: MIC E. coli EC155 (tet)A): > 32 µg/mL | MIC [10]: 8 µg/mL (≈ 18 µM) | MIC [11, 22]: 0.25 µg/mL (≈ 0.563 µM) | MIC ([11]; Table 9, read-out: MIC S. aureus ATCC 29213): 0.5 µg/mL (≈ 1.13 µM) | MIC Range ([12]; H. influenzae (n = 12)): 0.25 to 16 µg/mL | MIC50 ([12]; Haemophilus influenzae): 0.5 µg/mL (≈ 1.13 µM) | MIC [13, 23]: 64 µg/mL (≈ 144 µM) | MIC ([13]; Table 9, read-out: MIC E. faecalis EF159 (tet)M): > 32 µg/mL

CN(C)[C@@H]1C(O)=C(C(N)=O)C(=O)[C@@]2(O)C(O)=C3C(=O)c4c(O)c(N)nc(F)c4C[C@H]3C[C@@H]12 [Compound 125]
TnT IC50 [1]: 0.93 µg/mL | IC50, in vitro transcription/translation system [1]: sub-μg/ml

CN(C)[C@@H]1C(O)=C(C(N)=O)C(=O)[C@@]2(O)C(O)=C3C(=O)c4c(O)c(NCC(F)(F)F)nc(Cl)c4C[C@H]3C[C@@H]12 [Compound 124]
MIC Range [14]: <=0.016-8 | MIC Range [15]: 0.008-4 | MIC Range [16]: 0.25-4 | MIC ([2]; read-out: MIC, TetM induced): 16 µg/mL | MIC ([2]; read-out: MIC, Uninduced): 4 µg/mL | Ratio (TetM induced / Uninduced) [2]: 4 | MIC ([3]; read-out: MIC, TetK Induced): 16 µg/mL | MIC ([3]; read-out: MIC, Uninduced): 8 µg/mL | MIC ratio, TetK induced to uninduced [3]: 2 | TnT IC50 [1]: >4.5 µg/mL

CO/N=C(\C(=O)N[C@@H]1C(=O)N2C(C(=O)O)=C(CSc3nc(=O)c(=O)[nH]n3C)CS[C@H]12)c1csc(N)n1 [Ceftriaxone, ceftriaxone, reference compound]
MIC ([2]; read-out: MIC, TetM induced): 0.125 µg/mL | MIC ([2]; read-out: MIC, Uninduced): 0.0625 µg/mL | Ratio (TetM induced / Uninduced) [2]: 2 | Effect of expression of (tet)M on activity [2]: unaffected | MIC ([3]; read-out: MIC, TetK Induced): 0.25 µg/mL | MIC ([3]; read-out: MIC, Uninduced): 0.125 µg/mL | MIC ratio, TetK induced to uninduced [3]: 2 | Effect of expression of (tet)K on activity [3]: unaffected

CN(C)[C@@H]1C(O)=C(C(N)=O)C(=O)[C@@]2(O)C(O)=C3C(=O)c4c(O)cnc(F)c4C[C@H]3C[C@@H]12 [Compound 144]
MIC [17]: 8 µg/mL (≈ 18.5 µM) | MIC [7, 20]: 0.016 µg/mL (≈ 0.0369 µM) | MIC [8]: 8 µg/mL (≈ 18.5 µM) | MIC [9, 21]: > 32 µg/mL | MIC [10]: 4 µg/mL (≈ 9.23 µM) | MIC [18]: 8 µg/mL (≈ 18.5 µM) | MIC [11, 22]: 0.031 µg/mL (≈ 0.0715 µM) | MIC [19]: 0.25 µg/mL (≈ 0.577 µM) | MIC [13, 23]: 32 µg/mL (≈ 73.8 µM)
